Test results reported in US20230212164A1, “ANNULATED 2-AMINO-3-CYANO THIOPHENES AND DERIVATIVES FOR THE TREATMENT OF CANCER” (BOEHRINGER INGELHEIM INTERNATIONAL GMBH, priority 2020, published 2023).

What was measured:
[1] = target: T1, protein-protein interaction between SOS1 and KRAS G12C (Homo sapiens, UniProt P01116, C118S/C51S/C80L/G12C); experiment: KRAS::SOS1 AlphaScreen binding assay
T1 construct: His6 (N)
Method: KRAS::SOS1 AlphaScreen Binding Assay
Assay buffer: • 1×PBS • 0.1% BSA • 0.05% Tween 20
AlphaLISA Glutathione Acceptor Beads and AlphaScreen Streptavidin Donor Beads are mixed in assay buffer at a concentration of 10 μg/mL (final assay concentration) each prior to use and kept at room temperature.
Compounds are diluted to a final start concentration of 100 μM and are tested in duplicate. […] For compound a start concentration of 100 μM, 150 nL of compound solution is transferred per well in 11 concentrations in duplicate with serial 1:5 dilutions.
The assay is run using a fully automated robotic system in a darkened room below 100 Lux. 10 μL of KRAS::SOS1 GDP mix is added into columns 1-24 to the 150 nL of compound solution (final dilution in the assay 1:100, final DMSO concentration 1%).
After 30 minutes incubation time 5 μL of bead mix is added into columns 1-23. Plates are kept at room temperature in a darkened incubator. After further 60 minutes incubation, the signal is measured using a PerkinElmer Envision HTS Multilabel Reader using the AlphaScreen specifications from PerkinElmer. Each plate contains the following controls: • diluted DMSO+KRAS::SOS1 GDP mix+bead mix • diluted DMSO+KRAS::SOS1 GDP mix
IC50 values are calculated and analyzed using a 4 parametric logistic model.

[2] = system: pERK (Thr202/Tyr204) in NCI-H358 (KRAS G12C mutation); experiment: ERK phosphorylation assay 1 (AlphaLISA SureFire Ultra p-ERK1/2); settings: Homo sapiens, NCI-H358, read-out: IC50 H358 pERK
Method: ERK Phosphorylation Assay
Materials Used for the Assay:
AlphaLISA SureFire Ultra p-ERK1/2 (Thr202/Tyr204) Assay Kit (ALSU-PERK-A500)
The cells are incubated for 1 h at room temperature and then incubated overnight in an incubator at 37° C. and 5% CO2 in a humidified atmosphere. 60 nL compound solution (10 mM DMSO stock solution) is then added using a Labcyte Echo 550 device. […] After 20 minutes of incubation at room temperature with shaking, 6 μL of each lysate sample is transferred to a 384-well Proxiplate and analyzed for pERK (Thr202/Tyr204) with the AlphaLISA SureFire Ultra pERK1/2 (Thr202/Tyr204) Assay Kit. 3 μL Acceptor Mix and 3 μL Donor Mix are added under subdued light and incubated for 2 h at room temperature in the dark, before the signal is measured on a PerkinElmer Envision HTS Multilabel Reader. The raw data were imported into and analyzed with the Boehringer Ingelheim proprietary software MegaLab (curve fitting based on the program PRISM, GraphPad Inc.).

T1 sequence (P01116 1-169 isoform P01116-2 G12C/C51S/C80L/C118S): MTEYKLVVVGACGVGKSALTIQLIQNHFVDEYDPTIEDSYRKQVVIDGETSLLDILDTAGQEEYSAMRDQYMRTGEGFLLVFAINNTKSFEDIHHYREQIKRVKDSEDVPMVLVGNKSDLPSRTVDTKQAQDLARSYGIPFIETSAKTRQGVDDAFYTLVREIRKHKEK

C=CC(=O)N1CCC(c2cc(-c3noc(C4(C)CCCc5sc(N)c(C#N)c54)n3)nc(N3CCN(C)CC3)c2)CC1 (stereo not shown) [Ia-1]
IC50 ([1]; Table 35): 123 nM
IC50 [2]: 31.4 nM

C=CC(=O)N1CCC(c2cc(-c3noc(C4(C)CCCc5sc(N)c(C#N)c54)n3)nc(N3CCN(C4CCCC4)CC3)c2)CC1 (stereo not shown) [Ia-2]
IC50 ([1]; Table 35): 336 nM
IC50 [2]: 131 nM

C=CC(=O)N1CCC(Oc2cc(O[C@@H](C)[C@@H]3CCCN3C)nc(-c3noc([C@]4(C)CCCc5sc(N)c(C#N)c54)n3)c2)CC1 [Ia-5]
IC50 ([1]; Table 36): 622 nM

C=CC(=O)N1[C@H](C)CN(c2cc(-c3noc(C4(C)CCCc5sc(N)c(C#N)c54)n3)nc(N3CCN(C4CCCC4)CC3)c2)C[C@@H]1C (stereo partly shown) [Ia-8]
IC50 ([1]; Table 36): 1000 nM
IC50 [2]: 544 nM

C=CC(=O)N1C[C@@H]2CN(c3cc(-c4noc(C5(C)CCCc6sc(N)c(C#N)c65)n4)nc(N4CCN(C5CCCC5)CC4)c3)[C@@H]2C1 (stereo partly shown) [Ia-9]
IC50 ([1]; Table 36): 216 nM
IC50 [2]: 54.6 nM

C=CC(=O)N1CCN(c2cc(-c3noc(C4(C)CCC(C)c5sc(N)c(C#N)c54)n3)nc(N3CCN(C4CCCC4)CC3)c2)CC1 (stereo not shown) [Ia-10]
IC50 ([1]; Table 36): 254 nM
IC50 [2]: 38.5 nM

C=CC(=O)N1CCN(c2cc(-c3noc([C@@]4(C)CC[C@H](C)c5sc(N)c(C#N)c54)n3)nc(N3CCN(C4CCCC4)CC3)c2)CC1 [Ia-11]
IC50 ([1]; Table 36): 125 nM
IC50 [2]: 12.3 nM

C=CC(=O)N1CCN(c2cc(-c3noc(C4(C)CCC(C)c5sc(N)c(C#N)c54)n3)nc(N3CCN(C)CC3)c2)CC1 (stereo not shown) [Ia-12]
IC50 ([1]; Table 36): 117 nM
IC50 [2]: 13.5 nM

C=CC(=O)N1CCN(c2cc(-c3noc([C@]4(C)CCCc5sc(N)c(C#N)c54)n3)nc(N3CCN(C)C[C@@H]3C)c2)CC1 [Ia-13]
IC50 [2]: 7.3 nM

C=CC(=O)N1CCN(c2cc(-c3noc([C@@]4(C)CCCc5sc(N)c(C#N)c54)n3)nc(N3CCN(C)C[C@@H]3C)c2)CC1 [Ia-14]
IC50 [2]: 2.7 nM

C=CC(=O)N1CCN(c2cc(-c3noc(C4(C)CCCc5sc(N)c(C#N)c54)n3)nc(N3C4CCC3CN(C)C4)c2)CC1 (stereo not shown) [Ia-16]
IC50 ([1]; Table 36): 106 nM
IC50 [2]: 24.6 nM

C=CC(=O)N1CCN(c2cc(-c3noc(C4(C)CCCc5sc(N)c(C#N)c54)n3)nc(N3CCN(C4CC4)CC3)c2)CC1 (stereo not shown) [Ia-17]
IC50 ([1]; Table 36): 260 nM
IC50 [2]: 29.4 nM

C=CC(=O)N1CCN(c2cc(-c3noc(C4(C)CCCc5sc(N)c(C#N)c54)n3)nc(N3CCN(C4COC4)CC3)c2)CC1 (stereo not shown) [Ia-18]
IC50 ([1]; Table 36): 364 nM
IC50 [2]: 57.4 nM

C=CC(=O)N1CCN(c2cc(-c3noc(C4(C)CCCc5sc(N)c(C#N)c54)n3)nc(N3CC[C@H](N4CCCC4)C3)c2)CC1 (stereo partly shown) [Ia-20]
IC50 ([1]; Table 36): 130 nM
IC50 [2]: 20.7 nM

C=CC(=O)N1CCN(c2cc(-c3noc(C4(C)CCCc5sc(N)c(C#N)c54)n3)nc(N3C[C@@H](C)N(CC)[C@@H](C)C3)c2)CC1 (stereo partly shown) [Ia-21]
IC50 ([1]; Table 36): 51 nM
IC50 [2]: 7.4 nM

C=CC(=O)N1CCN(c2cc(-c3noc(C4(C)CCCc5sc(N)c(C#N)c54)n3)nc(N3CCC(N4CCCCC4)C3)c2)CC1 (stereo not shown) [Ia-22]
IC50 ([1]; Table 36): 40 nM
IC50 [2]: 6.7 nM

C=CC(=O)N1CCN(c2cc(-c3noc(C4(C)CCCc5sc(N)c(C#N)c54)n3)nc(N3CCC(N4CCCC4)C3)c2)CC1 (stereo not shown) [Ia-23]
IC50 ([1]; Table 36): 47 nM
IC50 [2]: 6.5 nM

C=CC(=O)N1CCN(c2cc(-c3noc(C4(C)CCCc5sc(N)c(C#N)c54)n3)nc(N3CCN(C4CCC(F)(F)CC4)CC3)c2)CC1 (stereo not shown) [Ia-24]
IC50 ([1]; Table 36): 406 nM
IC50 [2]: 80.1 nM

C=CC(=O)N1CCN(c2cc(-c3noc(C4(C)CCCc5sc(N)c(C#N)c54)n3)nc(N3CCN(C)CC34CC4)c2)CC1 (stereo not shown) [Ia-25]
IC50 ([1]; Table 36): 186 nM
IC50 [2]: 112 nM

C=CC(=O)N1CCN(c2cc(-c3noc(C4CCCc5sc(N)c(C#N)c54)n3)nc(N3CCN(C)CC3)c2)CC1 (stereo not shown) [Ia-27]
IC50 ([1]; Table 36): 240 nM
IC50 [2]: 61.6 nM

C=CC(=O)N1CCN(c2cc(-c3noc(C4(C)CCCc5sc(N)c(C#N)c54)n3)nc(N3CCN(C4CCN(C)CC4)CC3)c2)CC1 (stereo not shown) [Ia-28]
IC50 ([1]; Table 36): 152 nM
IC50 [2]: 785 nM

C=CC(=O)N1CCN(c2cc(-c3noc(C4(C)CCCc5sc(N)c(C#N)c54)n3)nc(N3CCC(N4CCOCC4)CC3)c2)CC1 (stereo not shown) [Ia-29]
IC50 ([1]; Table 36): 48 nM
IC50 [2]: 7.8 nM

C=CC(=O)N1CCC(Oc2cc(-c3noc(C4(C)CCCc5sc(N)c(C#N)c54)n3)nc(N3CCC(N4CCOCC4)CC3)c2)CC1 (stereo not shown) [Ia-30]
IC50 ([1]; Table 36): 103 nM
IC50 [2]: 20.1 nM

C=CC(=O)N1CCN(c2cc(-c3noc(C4(C)CCCc5sc(N)c(C#N)c54)n3)nc(N3CCN(C(C)(C)C)CC3)c2)CC1 (stereo not shown) [Ia-31]
IC50 ([1]; Table 36): 83 nM

C=CC(=O)N1CCN(c2cc(-c3noc(C4(C)CCCc5sc(N)c(C#N)c54)n3)cc(N3CCC(N4CCOCC4)CC3)c2)CC1 (stereo not shown) [Ia-32]
IC50 ([1]; Table 36): 255 nM
IC50 [2]: 35.6 nM

C=CC(=O)N1CCN(c2cc(-c3ccncc3)nc(-c3noc(C4(C)CCCc5sc(N)c(C#N)c54)n3)c2)CC1 (stereo not shown) [Ia-33]
IC50 ([1]; Table 36): 442 nM
IC50 [2]: 50.4 nM

C=CC(=O)N1CCN(c2cc(-c3noc(C4(C)CCCc5sc(N)c(C#N)c54)n3)nc(N3CCC(N4CCCC4)CC3)c2)CC1 (stereo not shown) [Ia-36]
IC50 ([1]; Table 36): 24 nM
IC50 [2]: 12.2 nM

C=CC(=O)N1CCN(c2cc(-c3noc(C4(C)CCCc5sc(N)c(C#N)c54)n3)nc(N3CCC(N4CCCCC4)CC3)c2)CC1 (stereo not shown) [Ia-37]
IC50 ([1]; Table 36): 47 nM
IC50 [2]: 12.3 nM

C=CC(=O)N1CCN(c2cc(-c3noc(C4(C)CCCc5sc(N)c(C#N)c54)n3)nc(N3CCC(N4CCC(F)C4)CC3)c2)CC1 (stereo not shown) [Ia-38]
IC50 ([1]; Table 36): 22 nM
IC50 [2]: 5.8 nM

C=CC(=O)N1CCN(c2cc(-c3noc(C4(C)CCCc5sc(N)c(C#N)c54)n3)nc(N3CCC(N4CC[C@H](F)C4)CC3)c2)CC1 (stereo partly shown) [Ia-40]
IC50 ([1]; Table 36): 19 nM
IC50 [2]: 5.3 nM

C=CC(=O)N1CCN(c2cc(-c3noc([C@@]4(C)CCCc5sc(N)c(C#N)c54)n3)nc(N3CCCN(CCCOC)C[C@@H]3C)n2)CC1 [Ia-42]
IC50 ([1]; Table 36): 1.8 nM
IC50 [2]: 2.8 nM

C=CC(=O)N1CCCN(c2cc(-c3noc([C@@]4(C)CCCc5sc(N)c(C#N)c54)n3)nc(N3CCCN(CCCOC)C[C@@H]3C)n2)CC1 [Ia-45]
IC50 ([1]; Table 36): 6 nM

C=CC(=O)N1CCN(c2cc(-c3noc(C4(C)CCCc5sc(N)c(C#N)c54)n3)nc(N3CCN(C)CC3)c2)CC1 (stereo not shown) [Ia-87]
IC50 ([1]; Table 36): 51 nM
IC50 [2]: 10 nM

C=CC(=O)N1CCN(c2cc(OCCN(C)C)nc(-c3noc(C4(C)CCCc5sc(N)c(C#N)c54)n3)c2)CC1 (stereo not shown) [Ia-89]
IC50 ([1]; Table 36): 48 nM

C=CC(=O)N1CCN(c2cc(OCCN(C)C)cc(-c3noc(C4(C)CCCc5sc(N)c(C#N)c54)n3)c2)CC1 (stereo not shown) [Ia-90]
IC50 ([1]; Table 36): 250 nM

C=CC(=O)N1CCC(Oc2cc(-c3noc([C@@]4(C)CCCc5sc(N)c(C#N)c54)n3)nc(N3CCN(C)CC3)c2)CC1 [Ia-91]
IC50 ([1]; Table 36): 49 nM
IC50 [2]: 11.6 nM

C=CC(=O)N1CC(CN(C)c2cc(-c3noc([C@@]4(C)CCCc5sc(N)c(C#N)c54)n3)nc(N3CCCN(C)C[C@@H]3C)n2)C1 [Ia-93]
IC50 ([1]; Table 36): 381 nM

C=CC(=O)N1CCC2(CCN(c3cc(-c4noc([C@@]5(C)CCCc6sc(N)c(C#N)c65)n4)nc(N4CCCN(C)C[C@@H]4C)n3)C2)C1 (stereo partly shown) [Ia-96]
IC50 ([1]; Table 36): 799 nM

C=CC(=O)N1CC2=C(C1)CN(c1cc(-c3noc([C@@]4(C)CCCc5sc(N)c(C#N)c54)n3)nc(N3CCCN(C)C[C@@H]3C)n1)C2 [Ia-102]
IC50 ([1]; Table 36): 117 nM

C=CC(=O)N1CCC2C1CCN2c1cc(-c2noc([C@@]3(C)CCCc4sc(N)c(C#N)c43)n2)nc(N2CCCN(C)C[C@@H]2C)n1 (stereo partly shown) [Ia-103]
IC50 ([1]; Table 36): 143 nM

C=CC(=O)N1CCN(c2cc(-c3noc(C4(C)CCC(C)c5sc(N)c(C#N)c54)n3)nc(N3CCN(C)CC3)c2)CC1C (stereo not shown) [Ia-104]
IC50 ([1]; Table 36): 635 nM
IC50 [2]: 71.8 nM

C=CC(=O)N1CCN(c2cc(-c3noc(C4(C)CCC(C)c5sc(N)c(C#N)c54)n3)nc(N3CCN(CC)CC3)c2)CC1 (stereo not shown) [Ia-105]
IC50 ([1]; Table 36): 145 nM
IC50 [2]: 14.4 nM

C=CC(=O)N1CCN(c2cc(-c3noc([C@@]4(C)CCCc5sc(N)c(C#N)c54)n3)nc(N3CCN(C)C[C@H]3C)c2)CC1 [Ia-119]
IC50 [2]: 24.2 nM

C=CC(=O)N1CCN(c2cc(-c3noc(C4(C)CCCc5sc(N)c(C#N)c54)n3)nc(N3CCN(C4CCCC4)CC3)c2)CC1 (stereo not shown) [Ia-147]
IC50 ([1]; Table 36): 71 nM

CC#CC(=O)N1CCN(c2cc(-c3noc(C4(C)CCCc5sc(N)c(C#N)c54)n3)nc(N3CCN(C)CC3)c2)CC1 (stereo not shown) [Ia-168]
IC50 ([1]; Table 38): 1020 nM
